According to the supplement of paper PMC10307832:

Assays:
Test in all cases: relative viability (nuclei count vs DMSO), 5 days (fraction); higher = more cells survive
HCC-15 = tested on: HCC-15
Outline: (§1)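 Relative viability divides the nuclei count in treated wells by that in vehicle wells. Lung cancer cell lines were seeded in 1536-well plates, dosed by pin tool the next day, and fixed and stained after 5 days in one step with final 0.05% Triton X-100, 1% formaldehyde and 1 ug/ml Hoechst. Dosing was a single drug or a fixed anchor-drug dose plus five library-drug doses (not always all listed) in √10 steps, and values are medians of duplicate plates imaged at 4×.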

NCI-H2126 = tested on: NCI-H2126
Outline: as §1

SW 1573 = tested on: SW 1573
Outline: as §1

PC-14 = tested on: PC-14
Outline: as §1

UMC-11 = tested on: UMC-11
Outline: as §1

NCI-H358 = tested on: NCI-H358
Outline: as §1

ABC-1 = tested on: ABC-1
Outline: as §1

NCI-H650 = tested on: NCI-H650
Outline: as §1

NCI-H838 = tested on: NCI-H838
Outline: as §1

LU99A = tested on: LU99A
Outline: as §1

NCI-H1651 = tested on: NCI-H1651
Outline: as §1

NCI-H2347 = tested on: NCI-H2347
Outline: as §1

NCI-H1915 = tested on: NCI-H1915
Outline: as §1

NCI-H2085 = tested on: NCI-H2085
Outline: as §1

HARA = tested on: HARA
Outline: as §1

HCC-78 = tested on: HCC-78
Outline: as §1

NCI-H1993 = tested on: NCI-H1993
Outline: as §1

LC-2-ad = tested on: LC-2-ad
Outline: as §1

NCI-H460 = tested on: NCI-H460
Outline: as §1

COR-L23 = tested on: COR-L23
Outline: as §1

NCI-H2342 = tested on: NCI-H2342
Outline: as §1

NCI-H522 = tested on: NCI-H522
Outline: as §1

NCI-H2009 = tested on: NCI-H2009
Outline: as §1

EPLC-272H = tested on: EPLC-272H
Outline: as §1

Clc1ccc(Nc2nnc(Cc3ccncc3)c3ccccc23)cc1 [Vatalanib] + COc1cccc2cc(-c3nc([C@H]4CC[C@H](C(=O)O)CC4)n4ncnc(N)c34)[nH]c12 [OSI-027] (partner 0.5 µM)
relative viability (HCC-15; first compound 0.04 µM): 0.714 | relative viability (HCC-15; first compound 0.1265 µM): 0.724 | relative viability (HCC-15; first compound 0.4 µM): 0.535 | relative viability (HCC-15; first compound 1.265 µM): 0.582 | relative viability (HCC-15; first compound 4 µM): 0.523 | relative viability (NCI-H2126; first compound 0.04 µM): 0.692 | relative viability (NCI-H2126; first compound 0.1265 µM): 0.693 | relative viability (NCI-H2126; first compound 0.4 µM): 0.797 | relative viability (NCI-H2126; first compound 1.265 µM): 0.62 | relative viability (NCI-H2126; first compound 4 µM): 0.625 | relative viability (SW 1573; first compound 0.04 µM): 0.714 | relative viability (SW 1573; first compound 0.1265 µM): 0.574 | relative viability (SW 1573; first compound 0.4 µM): 0.666 | relative viability (SW 1573; first compound 1.265 µM): 0.585 | relative viability (SW 1573; first compound 4 µM): 0.59 | relative viability (PC-14; first compound 0.04 µM): 1.05 | relative viability (PC-14; first compound 0.1265 µM): 0.782 | relative viability (PC-14; first compound 0.4 µM): 0.844 | relative viability (PC-14; first compound 1.265 µM): 0.672 | relative viability (PC-14; first compound 4 µM): 0.849 | relative viability (UMC-11; first compound 0.04 µM): 0.461 | relative viability (UMC-11; first compound 0.1265 µM): 0.487 | relative viability (UMC-11; first compound 0.4 µM): 0.44 | relative viability (UMC-11; first compound 1.265 µM): 0.433 | relative viability (UMC-11; first compound 4 µM): 0.518 | relative viability (NCI-H358; first compound 0.04 µM): 0.811 | relative viability (NCI-H358; first compound 0.1265 µM): 0.678 | relative viability (NCI-H358; first compound 0.4 µM): 0.747 | relative viability (NCI-H358; first compound 1.265 µM): 0.684 | relative viability (NCI-H358; first compound 4 µM): 0.698 | relative viability (ABC-1; first compound 0.04 µM): 0.444 | relative viability (ABC-1; first compound 0.1265 µM): 0.512 | relative viability (ABC-1; first compound 1.265 µM): 0.381 | relative viability (ABC-1; first compound 4 µM): 0.486 | relative viability (NCI-H650; first compound 0.04 µM): 0.627 | relative viability (NCI-H650; first compound 0.1265 µM): 0.49 | relative viability (NCI-H650; first compound 1.265 µM): 0.491 | relative viability (NCI-H650; first compound 4 µM): 0.523 | relative viability (NCI-H838; first compound 0.04 µM): 0.428 | relative viability (NCI-H838; first compound 0.1265 µM): 0.384 | relative viability (NCI-H838; first compound 0.4 µM): 0.379 | relative viability (NCI-H838; first compound 1.265 µM): 0.404 | relative viability (NCI-H838; first compound 4 µM): 0.443 | relative viability (LU99A; first compound 0.04 µM): 0.262 | relative viability (LU99A; first compound 0.1265 µM): 0.282 | relative viability (LU99A; first compound 0.4 µM): 0.358 | relative viability (LU99A; first compound 1.265 µM): 0.307 | relative viability (LU99A; first compound 4 µM): 0.277 | relative viability (NCI-H1651; first compound 0.04 µM): 0.751 | relative viability (NCI-H1651; first compound 0.1265 µM): 0.723 | relative viability (NCI-H1651; first compound 0.4 µM): 0.662 | relative viability (NCI-H1651; first compound 1.265 µM): 0.644 | relative viability (NCI-H1651; first compound 4 µM): 0.615 | relative viability (NCI-H2347; first compound 0.04 µM): 0.397 | relative viability (NCI-H2347; first compound 0.1265 µM): 0.391 | relative viability (NCI-H2347; first compound 0.4 µM): 0.488 | relative viability (NCI-H2347; first compound 1.265 µM): 0.464 | relative viability (NCI-H2347; first compound 4 µM): 0.364 | relative viability (NCI-H1915; first compound 0.04 µM): 0.673 | relative viability (NCI-H1915; first compound 0.1265 µM): 0.636 | relative viability (NCI-H1915; first compound 0.4 µM): 0.632 | relative viability (NCI-H1915; first compound 1.265 µM): 0.649 | relative viability (NCI-H1915; first compound 4 µM): 0.61 | relative viability (NCI-H2085; first compound 0.04 µM): 0.685 | relative viability (NCI-H2085; first compound 0.1265 µM): 0.819 | relative viability (NCI-H2085; first compound 0.4 µM): 0.883 | relative viability (NCI-H2085; first compound 1.265 µM): 0.697 | relative viability (NCI-H2085; first compound 4 µM): 0.544 | relative viability (HARA; first compound 0.04 µM): 0.506 | relative viability (HARA; first compound 0.1265 µM): 0.595 | relative viability (HARA; first compound 0.4 µM): 0.71 | relative viability (HARA; first compound 1.265 µM): 0.492 | relative viability (HARA; first compound 4 µM): 0.422 | relative viability (HCC-78; first compound 0.04 µM): 0.318 | relative viability (HCC-78; first compound 0.1265 µM): 0.37 | relative viability (HCC-78; first compound 0.4 µM): 0.381 | relative viability (HCC-78; first compound 1.265 µM): 0.306 | relative viability (HCC-78; first compound 4 µM): 0.351 | relative viability (NCI-H1993; first compound 0.04 µM): 0.55 | relative viability (NCI-H1993; first compound 0.1265 µM): 0.558 | relative viability (NCI-H1993; first compound 0.4 µM): 0.554 | relative viability (NCI-H1993; first compound 1.265 µM): 0.594 | relative viability (NCI-H1993; first compound 4 µM): 0.58 | relative viability (LC-2-ad; first compound 0.04 µM): 0.935 | relative viability (LC-2-ad; first compound 0.1265 µM): 0.865 | relative viability (LC-2-ad; first compound 1.265 µM): 0.785 | relative viability (LC-2-ad; first compound 4 µM): 0.826 | relative viability (NCI-H460; first compound 0.04 µM): 0.713 | relative viability (NCI-H460; first compound 0.1265 µM): 0.703 | relative viability (NCI-H460; first compound 0.4 µM): 0.655 | relative viability (NCI-H460; first compound 1.265 µM): 0.65 | relative viability (NCI-H460; first compound 4 µM): 0.624 | relative viability (COR-L23; first compound 0.04 µM): 0.814 | relative viability (COR-L23; first compound 0.1265 µM): 0.765 | relative viability (COR-L23; first compound 0.4 µM): 0.891 | relative viability (COR-L23; first compound 1.265 µM): 0.709 | relative viability (COR-L23; first compound 4 µM): 0.722 | relative viability (NCI-H2342; first compound 0.04 µM): 0.691 | relative viability (NCI-H2342; first compound 0.1265 µM): 0.556 | relative viability (NCI-H2342; first compound 0.4 µM): 0.616 | relative viability (NCI-H2342; first compound 1.265 µM): 0.592 | relative viability (NCI-H2342; first compound 4 µM): 0.601 | relative viability (NCI-H522; first compound 0.04 µM): 0.703 | relative viability (NCI-H522; first compound 0.1265 µM): 0.677 | relative viability (NCI-H522; first compound 0.4 µM): 0.73 | relative viability (NCI-H522; first compound 1.265 µM): 0.714 | relative viability (NCI-H522; first compound 4 µM): 0.796 | relative viability (NCI-H2009; first compound 0.04 µM): 0.73 | relative viability (NCI-H2009; first compound 0.1265 µM): 0.561 | relative viability (NCI-H2009; first compound 0.4 µM): 0.647 | relative viability (NCI-H2009; first compound 1.265 µM): 0.58 | relative viability (NCI-H2009; first compound 4 µM): 0.626 | relative viability (EPLC-272H; first compound 0.04 µM): 0.268 | relative viability (EPLC-272H; first compound 0.1265 µM): 0.259 | relative viability (EPLC-272H; first compound 0.4 µM): 0.323 | relative viability (EPLC-272H; first compound 1.265 µM): 0.301 | relative viability (EPLC-272H; first compound 4 µM): 0.303
